Molecular target: T1, CIB1 and αIIb interaction (CIB1-GST : F-αIIb peptide) (Homo sapiens, UniProt Q99828)
T1 construct: made in house; host or cells: BL-21 plus RIL cells (E. coli)
T1 sequence (Q99828 1-191): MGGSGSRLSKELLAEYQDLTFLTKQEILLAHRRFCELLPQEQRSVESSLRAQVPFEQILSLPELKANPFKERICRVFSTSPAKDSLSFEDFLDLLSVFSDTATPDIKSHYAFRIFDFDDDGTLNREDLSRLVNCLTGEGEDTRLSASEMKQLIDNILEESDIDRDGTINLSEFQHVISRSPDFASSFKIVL
Test: FP assay, 1536-well qHTS format (primary and confirmatory screen)
Assay type: binding
Conditions: qHTS primary screen hits, Table S2; for Efficacy (%): negative = inhibition; for Curve Class: negative sign = inhibitory curve; for IC50: read-out: IC50

[1] = several classes where COUNT > 1

Row | SMILES | Efficacy (%) | Curve Class [1] | IC50 | Curve Class
1 | Cc1ccc(OCCn2c3c(c4ccccc42)CN(C(=O)C2CCCCC2)CC3)cc1.O=C(O)C(F)(F)F [NCGC00238717-01] | -46% | -2.4 | 56.2 µM | 
2 | O=C(O)C(F)(F)F.O=C(O)c1ccc(O)c2ncc(N3CCN(Cc4ccccc4)CC3)cc12 [NCGC00241045-04] | -24% | -2.4 | 56.2 µM | 
3 | CC(=O)Nc1sc2c(c1-c1nc3ccccc3s1)CCN(C1COC1)C2.O=C(O)C(F)(F)F [NCGC00241066-01] | -83% | -1.2 | 14.1 µM | 
4 | Cc1ccnc(NC(=S)N2CCc3ccccc3C2)c1.O=C(O)C(F)(F)F [NCGC00241083-01] | -23% | -2.4 | 79.4 µM | 
5 | Cc1ccnc(N(C)C(=S)N2CCN(c3cccc(C(F)(F)F)c3)CC2)c1.O=C(O)C(F)(F)F [NCGC00241084-01] | -24% |  | 50.1 µM | -2.4
6 | Cc1ccc(-n2nc(C(C)(C)C)cc2NC(=O)Nc2ccc(OCCN3CCOCC3)c3ccccc23)cc1 [NCGC00241104-02] | -32% | -2.4 | 44.7 µM | 
7 | Cc1ccnc(NC(=S)N2CC[C@@H](Nc3cccc(C(F)(F)F)c3)C2)c1 [NCGC00241356-01] | -31% | -2.4 | 79.4 µM | 
8 | Cc1ccn2c(Nc3ccc4c(c3)OCO4)c(-c3ccccn3)nc2c1.O=C(O)C(F)(F)F [NCGC00241360-01] | -51% | -2.4 | 56.2 µM | 
9 | Cc1cc2c(cc1C1(c3ccc(C(=O)O)cc3)CC1)C(C)(C)CCC2(C)C [NCGC00241454-01] | -27% | -2.4 | 79.4 µM | 
10 | COc1ccc(CNC(=O)c2ccc3c(c2)NC(=O)c2ccccc2S3)cc1 [NCGC00241665-01] | -27% |  | 56.2 µM | -2.4
11 | CC(=O)O.Cc1ccc(OCCn2c(CCNC(=O)c3ccc(N)cc3)nc3ccccc32)cc1 [NCGC00241723-01] | -31% |  | 44.7 µM | -1.4
12 | Cc1ccnc(NC(=S)N2CCN(c3cccc(C(F)(F)F)c3)CC2)n1.O=C(O)C(F)(F)F [NCGC00242308-01] | -41% | -2.2 | 79.4 µM | 
13 | Cc1ccc(NS(=O)(=O)c2cc(Br)cc3c2NC(=O)CC3)cc1Cl.O=C(O)C(F)(F)F [NCGC00242331-01] | -33% |  | 50.1 µM | -2.2
14 | N#C[C@@H]1C[C@@H]2C[C@@H]2N1C(=O)[C@@H](N)C12CC3CC(CC(O)(C3)C1)C2 [NCGC00242597-01] | -49% | -2.2 | 44.7 µM | 
15 | O=C(O)C(F)(F)F.O=C1CCCC2=C1C(c1n[nH]cc1Cl)NC(Nc1nc3ccccc3o1)=N2 (centres unmarked) [NCGC00242659-02] | -31% | -2.4 | 31.6 µM | 
16 | Cc1cc(C)nc(NC(=S)N2CCN(c3cc4ccccc4cn3)CC2)c1.O=C(O)C(F)(F)F [NCGC00244142-01] | -31% | -2.4 | 79.4 µM | 
17 | Cc1cc(C)nc(NC(=S)N2CCN(c3cccc4ccncc34)CC2)c1.O=C(O)C(F)(F)F [NCGC00244146-01] | -30% |  | 79.4 µM | -2.4
18 | Cc1cc(C)nc(NC(=S)N2CCN(c3ccc4nonc4c3)CC2)c1.O=C(O)C(F)(F)F [NCGC00244156-01] | -25% | -2.4 | 50.1 µM | 
19 | CN(C)CCc1c[nH]c2ccc(O)cc12 [NCGC00247724-01] | -23% |  | 112 µM | -2.4
20 | CCOC(=O)c1nnc(NS(=O)(=O)c2ccc(NC(=O)Cc3ccc(Cl)c(Cl)c3)cc2)s1.O=C(O)C(F)(F)F [NCGC00248354-02] | -28% |  | 31.4 µM | 
